Laboratory results from ChEMBL document CHEMBL3259593, “Development of [(3)H]2-Carboxy-4,6-dichloro-1H-indole-3-propionic Acid ([(3)H]PSB-12150): A Useful Tool for Studying GPR17” (ACS Med Chem Lett, 2014).
Activity calls are given as the source filed them. No cut-off for these calls is given here.

How the values were obtained:
[1] = target: T1, Uracil nucleotide/cysteinyl leukotriene receptor (Homo sapiens, UniProt Q13304); assay: Displacement of [3H]PSB-12150 from human GPR17 expressed in CHO-K1 cell membranes after 60 mins by competition binding assay
T1 sequence (Q13304 whole entry): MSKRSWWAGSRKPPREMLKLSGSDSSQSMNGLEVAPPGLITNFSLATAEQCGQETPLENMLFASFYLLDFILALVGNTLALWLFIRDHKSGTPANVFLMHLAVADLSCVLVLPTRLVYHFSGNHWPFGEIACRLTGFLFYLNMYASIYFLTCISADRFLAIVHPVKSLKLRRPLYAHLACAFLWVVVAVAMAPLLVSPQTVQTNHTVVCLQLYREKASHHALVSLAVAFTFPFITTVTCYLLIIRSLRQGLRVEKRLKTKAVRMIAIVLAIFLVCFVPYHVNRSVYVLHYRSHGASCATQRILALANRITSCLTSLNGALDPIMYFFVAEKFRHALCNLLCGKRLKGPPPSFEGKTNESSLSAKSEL

[2] = target: T1, Uracil nucleotide/cysteinyl leukotriene receptor; assay: Displacement of [3H]PSB-12150 from human GPR17 expressed in CHO-K1 cell membranes after 60 mins by homologous competition binding assay in presence of pranlukast
[3] = target: T1, Uracil nucleotide/cysteinyl leukotriene receptor; conditions: CHO-K1, 100 uM
Description: Displacement of [3H]PSB-12150 from human GPR17 expressed in CHO-K1 cell membranes assessed as association half life at 100 uM by liquid scintillation counting

[4] = target: T1, Uracil nucleotide/cysteinyl leukotriene receptor; conditions: CHO-K1, 100 uM; remark: listed apart in the source
Description: Displacement of [3H]PSB-12150 from human GPR17 expressed in CHO-K1 cell membranes assessed as dissociation half life at 100 uM treated after 1 hr incubation with radioligand by liquid scintillation counting

[5] = target: T1, Uracil nucleotide/cysteinyl leukotriene receptor; assay: Displacement of [3H]PSB-12150 from human GPR17 expressed in CHO-K1 cell membranes up to 1 uM after 60 mins by liquid scintillation counting
[6] = target: T1, Uracil nucleotide/cysteinyl leukotriene receptor; assay: Displacement of [3H]PSB-12150 from human GPR17 expressed in CHO-K1 cell membranes up to 1 mM after 60 mins by liquid scintillation counting
[7] = target: T1, Uracil nucleotide/cysteinyl leukotriene receptor; assay: biochemical
Description: Displacement of [3H]PSB-12150 from human GPR17 expressed in CHO-K1 cell membranes after 60 mins by heterologous competition binding assay

[8] = target: T1, Uracil nucleotide/cysteinyl leukotriene receptor; assay: Binding affinity to human GPR17 expressed in CHO-K1 cell membranes after 60 mins by saturation curve study
[9] = target: T1, Uracil nucleotide/cysteinyl leukotriene receptor; assay: Displacement of [3H]PSB-12150 from human GPR17 expressed in CHO-K1 cell membranes at 100 uM after 60 mins by liquid scintillation counting

**Q.** Which results are given for `O=C(O)CCc1c(C(=O)O)[nH]c2cc(Cl)cc(Cl)c12`?
**A.** Ki [1]: 2.32 µM; Ki [2]: 1.21 µM; T1/2 [3]: 1.8 min; T1/2 [4]: 0.3 min

**Q.** Which Activity [5] does the source give for `CCCCC/C=C\C\C=C/C=C/C=C/[C@@H](SCC(NC(=O)CC[C@H](N)C(=O)O)C(=O)NCC(=O)O)[C@@H](O)CCCC(=O)O` (single isomer, unassigned) here?
**A.** inactive

**Q.** Which Activity [6] does the source give for `Nc1ncnc2c1ncn2[C@@H]1O[C@H](COP(=O)(O)OP(=O)(O)O)[C@@H](O)[C@H]1O` here?
**A.** inactive

**Q.** Which Ki [7] does the source give for `O=C(/C=C/c1c(C(=O)O)[nH]c2cc(Cl)cc(Cl)c12)Nc1ccccc1` [GAVESTINEL] here?
**A.** 1.63 µM

**Q.** Which Activity [6] does the source give for `O=c1ccn([C@@H]2O[C@H](COP(=O)(O)OP(=O)(O)O)[C@@H](O)[C@H]2O)c(=O)[nH]1` here?
**A.** inactive

**Q.** `O=C(Nc1cccc2c(=O)cc(-c3nnn[nH]3)oc12)c1ccc(OCCCCc2ccccc2)cc1` [PRANLUKAST] was tested. Which Ki [7] did it give?
**A.** 4.06 µM

**Q.** `Nc1ncnc2c1ncn2[C@@H]1O[C@H](COP(=O)(O)OP(=O)(O)OP(=O)(O)O)[C@@H](O)[C@H]1O` was tested. Which Activity [6] did it give?
**A.** inactive

**Q.** Which Activity [6] does the source give for `O=c1ccn([C@@H]2O[C@H](COP(=O)(O)OP(=O)(O)OP(=O)(O)O)[C@@H](O)[C@H]2O)c(=O)[nH]1` here?
**A.** inactive

**Q.** With `[3H]C([3H])(C(=O)O)C([3H])([3H])c1c(C(=O)O)[nH]c2cc(Cl)cc(Cl)c12` as the compound, how does the Kd [8] read?
**A.** 1.26 µM

**Q.** `CC(C)(O)c1ccccc1CC[C@@H](SCC1(CC(=O)O)CC1)c1cccc(/C=C/c2ccc3ccc(Cl)cc3n2)c1` [MONTELUKAST] was tested. Which Ki [7] did it give?
**A.** 6.54 µM

**Q.** For `Nc1nc(=O)c2ncn([C@@H]3O[C@H](COP(=O)(O)OP(=O)(O)OP(=O)(O)O)[C@@H](O)C3O)c2[nH]1` (single isomer, unassigned), which Activity [9] is on record?
**A.** Active
